# In PubChem BioAssay (NCI):
#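 Assay format: 96-well plates, 48-hour exposure. Here, GI50 denotes the concentration required for 50% inhibition of growth. TGI: total growth inhibition.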
# Assays:
# Assay in all cases: DTP human tumour cell line panel, 48 h
# SK-MEL-28 melanoma = tested on: SK-MEL-28 melanoma
# SW-620 colon = tested on: SW-620 colon
# SF-268 CNS = tested on: SF-268 CNS
# ACHN renal = tested on: ACHN renal
# OVCAR-5 ovarian = tested on: OVCAR-5 ovarian
# CAKI-1 renal = tested on: CAKI-1 renal
# CCRF-CEM leukemia = tested on: CCRF-CEM leukemia
# PC-3 prostate = tested on: PC-3 prostate
# RXF 393 renal = tested on: RXF 393 renal
# SF-539 CNS = tested on: SF-539 CNS
Structure (SMILES),TGI (SK-MEL-28 melanoma),TGI (SW-620 colon),TGI (SF-268 CNS),TGI (ACHN renal),TGI (OVCAR-5 ovarian),TGI (CAKI-1 renal),TGI (CCRF-CEM leukemia),TGI (PC-3 prostate),TGI (RXF 393 renal),TGI (SF-539 CNS),GI50 (SK-MEL-28 melanoma),GI50 (SW-620 colon),GI50 (SF-268 CNS),GI50 (ACHN renal),GI50 (OVCAR-5 ovarian),GI50 (CAKI-1 renal),GI50 (SF-539 CNS),GI50 (PC-3 prostate),GI50 (RXF 393 renal)
C[N+]12C=CC=C1C(N1CCCC1)c1sc(-c3ccc(Cl)cc3)cc12 (configuration not stated),31.6 µM,29.9 µM,34.3 µM,> 100 µM,35.8 µM,> 100 µM,62.8 µM,29.9 µM,31.9 µM,,,,,,,,,,
O=S(=O)(CC#CCS(=O)(=O)c1ccccc1)c1ccccc1,25.7 µM,> 100 µM,12.5 µM,3.25 µM,19.7 µM,3.42 µM,,22.3 µM,3.38 µM,6.86 µM,,,,,,,,,
CCC1OC(=O)C(C)C(OC2CC(C)(O)C(O)C(C)O2)C(C)C(O)C(C)(O)CC(C)C(=O)C(C)C(O)C1C (configuration not stated),> 300 µM,> 300 µM,> 300 µM,,> 300 µM,> 300 µM,> 300 µM,,> 300 µM,> 300 µM,,,,,,,,,
O=C(Cl)c1cc([N+](=O)[O-])cc([N+](=O)[O-])c1,> 100 µM,> 100 µM,> 100 µM,> 100 µM,> 100 µM,> 100 µM,> 100 µM,,,> 100 µM,,,,,,,,,
NC(N)=NS(=O)(=O)c1ccc(NC(=O)c2c3ccccc3nc3ccccc23)cc1,> 100 µM,> 100 µM,> 100 µM,> 100 µM,> 100 µM,> 100 µM,> 100 µM,> 100 µM,,> 100 µM,,,,,,,,,
COc1cc(C2c3cc4c(c(O)c3C(=O)C3CCC(=O)N32)OCO4)cc(OC)c1OC (configuration not stated),> 100 µM,> 100 µM,> 100 µM,> 100 µM,> 100 µM,> 100 µM,> 100 µM,> 100 µM,,> 100 µM,,,,,,,,,
N#C/C(=C/NC(=S)Nc1ccc(S(N)(=O)=O)cc1)C(N)=O,> 100 µM,> 100 µM,> 100 µM,> 100 µM,> 100 µM,> 100 µM,,> 100 µM,> 100 µM,> 100 µM,,,,,,,,,
Nc1cc(N)c2nc(-c3ccccc3)c(Sc3ccc(F)cc3)nc2c1,53.4 µM,49.6 µM,38.9 µM,27.7 µM,46.1 µM,36.6 µM,,> 100 µM,29.3 µM,40 µM,23.4 µM,22.8 µM,17.6 µM,14.2 µM,19 µM,18.1 µM,21.3 µM,29.4 µM,13.3 µM
O=c1[nH]/c(=C/c2ccc(OCc3ccccc3)cn2)c(=O)[nH]/c1=C/c1cccnc1,> 100 µM,> 100 µM,> 35 µM,> 100 µM,> 100 µM,> 100 µM,,> 100 µM,> 100 µM,,,,,,,,,,
O=C(CSCC(=O)N/N=C\c1cc(Br)cc(Br)c1O)N/N=C\c1cc(Br)cc(Br)c1O,> 100 µM,> 100 µM,58.2 µM,31.4 µM,> 100 µM,73 µM,,> 100 µM,> 100 µM,78.8 µM,,,,,,,,,
COC(=O)C1(C(=O)OC)CC2=C(S(=O)(=O)c3ccccc3)C[C@@H](C#N)[C@H]2C1,> 100 µM,> 100 µM,> 100 µM,> 100 µM,> 100 µM,> 100 µM,> 100 µM,> 100 µM,,> 100 µM,,,,,,,,,
CCOC(=O)C1C(=O)C=C(c2cc(C)ccc2O)CC1c1cccc(Br)c1 (configuration not stated),,> 100 µM,77.9 µM,42.2 µM,68.9 µM,80.5 µM,71.7 µM,40.4 µM,33.4 µM,35.2 µM,,,,,,,,,
Cc1[nH]c(=O)nc2c1C(=O)N(C(C)C)C(NC(C)C)S2 (configuration not stated),> 100 µM,> 100 µM,,> 100 µM,> 100 µM,> 100 µM,> 100 µM,> 100 µM,> 100 µM,> 100 µM,,,,,,,,,
C[N+](C)(C)CC(=O)N/N=C(\C(=O)Nc1ccc(Cl)cc1)C1C(=O)N(c2ccccc2)N=C1N (configuration not stated),> 100 µM,> 100 µM,> 100 µM,> 100 µM,> 100 µM,> 100 µM,> 100 µM,,> 100 µM,> 100 µM,,,,,,,,,
COC(=O)[C@H]1ON2O[C@H](OC3CCCC[C@@H]3c3ccccc3)C[C@@H]3CC[C@H]1[C@@]32C (some centres not stated),> 100 µM,> 100 µM,> 100 µM,> 100 µM,> 100 µM,> 100 µM,> 100 µM,> 100 µM,> 100 µM,,,,,,,,,,
O=C(N/N=C/c1cc(-c2ccccc2Cl)c(-c2ccccc2Cl)o1)c1ccncc1,> 100 µM,> 100 µM,> 100 µM,> 100 µM,> 100 µM,> 100 µM,,,> 100 µM,> 100 µM,,,,,,,,,
COc1ccc(C2Oc3cc(OC)c(O)cc3[C@@H]2C)cc1 (some centres not stated),> 100 µM,40.2 µM,> 100 µM,33.2 µM,> 100 µM,96.2 µM,44.2 µM,,> 100 µM,> 100 µM,,,,,,,,,
CC(C)(C)OC(=O)NCCNC(=O)OCc1ccccc1,> 100 µM,> 100 µM,> 100 µM,> 100 µM,> 100 µM,> 100 µM,,> 100 µM,> 100 µM,> 100 µM,,,,,,,,,
CCC(c1ccc(N(C)C)cc1)C1NC(=S)NC1=O (configuration not stated),> 100 µM,> 100 µM,> 100 µM,> 100 µM,> 100 µM,> 100 µM,> 100 µM,,> 100 µM,> 100 µM,,,,,,,,,
N#Cc1c(C#N)c(-c2ccco2)n(/N=C/c2ccco2)c1N,,> 100 µM,> 100 µM,> 100 µM,> 100 µM,> 100 µM,> 100 µM,> 100 µM,89.1 µM,> 100 µM,,,,,,,,,
O=C(c1ccccc1)c1cc(-c2ccccc2)c(-c2ccccc2)[nH]c(=O)c1=O,> 100 µM,> 100 µM,> 100 µM,> 100 µM,> 100 µM,> 100 µM,> 100 µM,> 100 µM,,> 100 µM,,,,,,,,,
Cc1c2cccc-2c(N(C)C)cc2c1[nH]c1ccccc12,6.84 µM,18.9 µM,16.7 µM,12.4 µM,9.35 µM,32.7 µM,12.8 µM,5.33 µM,,4.31 µM,,,,,,,,,
COC[C@@H](N=Cc1ccc(OC)cc1)C(C)C,> 100 µM,> 100 µM,> 100 µM,> 100 µM,> 100 µM,> 100 µM,> 100 µM,> 100 µM,> 100 µM,,,,,,,,,,
